Test results published in ChEMBL document CHEMBL1944613, “Cloning, characterization and sulfonamide inhibition studies of an α-carbonic anhydrase from the living fossil sponge Astrosclera willeyana” (Bioorg Med Chem, 2012).

What follows are compounds tested against T1, Astrosclerin-3 (Astrosclera willeyana, UniProt A6YCJ1).
T1 sequence (A6YCJ1 whole entry): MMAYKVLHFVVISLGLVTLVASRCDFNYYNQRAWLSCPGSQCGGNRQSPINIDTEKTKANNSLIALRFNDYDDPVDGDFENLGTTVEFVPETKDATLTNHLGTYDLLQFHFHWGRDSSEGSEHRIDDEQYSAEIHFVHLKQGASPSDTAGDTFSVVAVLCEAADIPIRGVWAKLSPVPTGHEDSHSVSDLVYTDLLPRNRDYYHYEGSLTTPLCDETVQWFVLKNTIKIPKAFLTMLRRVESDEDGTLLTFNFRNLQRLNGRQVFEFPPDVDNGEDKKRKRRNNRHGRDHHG
Description: Inhibition of GST-tagged astrosclera willeyana Astrosclerin-3 expressed in Escherichia coli after 15 mins preincubation by stopped flow CO2 hydration assay

Ki [µM] | Structure (SMILES)
0.0039 | Nc1ccc(S(=O)(=O)Nc2nnc(S(N)(=O)=O)s2)cc1
0.879 | Nc1c(I)cc(S(N)(=O)=O)cc1I
1.38 | NS(=O)(=O)c1ccc(CCO)cc1
0.751 | O=C1NS(=O)(=O)c2ccccc21 [SACCHARIN]
0.89 | Nc1ccc(S(N)(=O)=O)cc1F
0.973 | NCc1ccc(S(N)(=O)=O)cc1 [MAFENIDE]
4.26 | NS(=O)(=O)c1ccc(CO)cc1
0.675 | Cc1ccc(S(N)(=O)=O)cc1 [P-TOLUENESULFONAMIDE]
0.054 | Nc1nccc(Nc2ccc(S(N)(=O)=O)cc2)n1
0.032 | NS(=O)(=O)c1nnc(NS(=O)(=O)c2ccccc2)s1 [BENZOLAMIDE]
0.016 | Nc1ccc(S(=O)(=O)NCCc2ccc(S(N)(=O)=O)cc2)cc1
0.0028 | Nc1c(F)cc(S(=O)(=O)Nc2nnc(S(N)(=O)=O)s2)cc1Cl
0.393 | Cn1nc(S(N)(=O)=O)sc1=N
0.423 | NS(=O)(=O)c1ccc(S(=O)(=O)Nc2cccc3c(Cl)c[nH]c23)cc1
0.278 | CCN[C@H]1CN(CCCOC)S(=O)(=O)c2sc(S(N)(=O)=O)cc21 [BRINZOLAMIDE]
6.08 | NNc1ccc(S(N)(=O)=O)cc1
0.884 | Nc1ccc(S(N)(=O)=O)cc1Cl
1.21 | NS(=O)(=O)c1ccc(C(=O)O)cc1 [CARZENIDE]
7.7 | Nc1ccc(S(N)(=O)=O)cc1 [SULFANILAMIDE]
0.732 | Cc1ccc(-c2cc(C(F)(F)F)nn2-c2ccc(S(N)(=O)=O)cc2)cc1 [CELECOXIB]
0.038 | CC1(C)O[C@@H]2[C@@H](CO[C@@]3(COS(N)(=O)=O)OC(C)(C)O[C@@H]23)O1 [TOPIRAMATE]

Structure (SMILES) | Ki [µM]
NNc1ccccc1S(N)(=O)=O | 8.85
NS(=O)(=O)c1ccc(CCNC(=O)c2ccc(S(N)(=O)=O)cc2)cc1 | 0.034
NCCc1ccc(S(N)(=O)=O)cc1 | 0.715
Nc1c(Br)cc(S(N)(=O)=O)cc1Br | 0.965
